Test results taken from US20260206796A1, “FEED COMPOSITIONS” (Solugen, Inc., priority 2023, published 2026).
Where a name gives a salt, the structure may show the parent alone.

Experiments:
Type in all cases: in vivo
freshwater shrimp = assay: 10 week shrimp feeding trial with feed additives (phosphate level in tank water, survival); settings: for Shrimp survival rate: over 10 weeks of feeding trial, 1.2% additive in diet
Description: To validate if gluconates can be used as an acidulant additives in fish feed to increase shrimp's digestion and reduce phosphate discharge to aquaculture farm water, freshwater shrimp were fed with 1) regular shrimp diet as a control, 2) the same shrimp diet with 1.2% of an FIA, particularly gluconate, as disclosed herein and 3) the shrimp diet with 1.2% sodium citrate as an additive.
Phosphate reduction was equivalently high level to slightly better than citric acid up to 12.5 wt. %. This functionality of reducing phosphate level in discharged water from aquaculture farms is beneficial with respect to environmental regulations as aquaculture farmers are dealing with and the restrictions on the allowed phosphate level in the discharged water waste from aquaculture farms.

tilapia [1] = assay: Liver and intestinal histopathology of tilapia after 2 months on the diets; settings: for Intestinal histopathology / Liver histopathology / hepatic toxicity: additive 0.5 wt. % in diet, hematoxylin and eosin staining
Description: (§1) After 2 months, all the fish were weighed to assess weight gain. Two fish/tank were sampled for liver and intestinal histopathology and the muscle sent out for biochemical analysis. The remaining fish were placed in new clean water and the water was sampled at 4 hours and measured for phosphorus levels mostly derived from urine.

tilapia [2] = assay: 2 month tilapia growth trial on soybean meal-based diets (growth, feed conversion, phosphorus discharge); settings: additive 0.5 wt. % in diet; for Fecal phosphorus content compared to control diet: feces after 2 months on diets; for Phosphorus discharge (via urine) in the water compared to soybean based control diet: new clean water sampled after 4 hours
Description: The efficacy of an FIA used as fish feed was investigated. The aim of this study was to assess the efficacy of (i) a feed comprising an FIA of the type disclosed herein (e.g., gluconate) on the growth, phosphorus discharge, biochemical composition and histopathology in tilapia when compared to (ii) a soybean meal-based diet that would have a similar formulation as commercial feeds or (iii) a soybean meal-based diet that includes an FIA of the type disclosed herein or sodium citrate, respectively. Sodium citrate was chosen because this is a competitive chelator and has in the past shown to improve phosphorus utilization/reduce phosphorus discharge in various aquatic animals.
To compare the efficacy of an FIA of the type disclosed herein, a total of 4 isonitrogenous and isolipidic diets were formulated to satisfy the nutritional requirements of tilapia. The crude protein and crude lipid content of the diets were all 32 wt. % and 8 wt. %, respectively. However, the percentages of proteins and supplements were altered to satisfy the aims of this study. Soybean meal was used across all diets. Diet 1 was the control with only soybean meal (cellulose at 0.5 wt. %).
The FIA appeared like packaging peanuts, and thus needed to be ground into a fine powder for the product to be adequately mixed in the diet. All diets were made using a pelleter and the pellets were dried in an oven at 60° C. and stored at −20° C. until use.
A total of 90 all male tilapia were equally distributed among 9 oval polyethylene tanks that ran on a recirculating system. Thus, all the fish shared the same water throughout the 2 month growth trial. After the fish were stocked, of approximately equal size, the tanks were randomly allocated their treatments in triplicate. For the first week, the tilapia were fed the control diet to acclimate them to the experimental conditions and then after a week were hand fed twice daily to apparent satiation on their respective experimental diets.
Throughout the study, excess waste was manually siphoned out of the system and water exchanges were provided weekly. Feed intake was recorded to later calculate the feed conversion ratio. Fish feces were collected, dried and measured for the phosphorus levels after 2 months.
as §1

SMILES: O=C(O)[C@H](O)[C@@H](O)[C@H](O)[C@H](O)CO [gluconate]
- Phosphate reduction compared to citric acid (freshwater shrimp; 1.2% additive in shrimp diet, vs citric acid additive diet): up to 12.5 wt. %
- Phosphate reduction in tank water compared to control (regular shrimp diet) (freshwater shrimp; 1.2% additive in shrimp diet, vs control diet): up to 19 wt. %
- Shrimp survival rate (freshwater shrimp): 75%
- Overall safety for consumption at the level tested (tilapia [1]; 0.5 wt. % in diet): safe for tilapia consumption
- Intestinal histopathology (tilapia [1]): no such adverse effects
- Liver histopathology / hepatic toxicity (tilapia [1]; listed as FIA): no hepatic toxicity
- Liver histopathology / hepatic toxicity (tilapia [1]; listed as sugar oxidation product): normal sinusoid organization with clear central veins and intact and well dispersed pancreatic islets
- Fecal phosphorus content compared to control diet (tilapia [2]): significantly less
- Phosphorus discharge (via urine) in the water compared to soybean based control diet (tilapia [2]): significantly less

SMILES: O=C(O)CC(O)(CC(=O)O)C(=O)O [sodium citrate, reference compound]
- Shrimp survival rate (freshwater shrimp): 58%
- Intestinal histopathology (tilapia [1]): inflammation of the intestinal villi and goblet cell hyperplasia
- Liver histopathology / hepatic toxicity (tilapia [1]): varying degrees of hepatic lesions
- Liver histopathology / hepatic toxicity (tilapia [1]; listed as Sodium citrate): hepatic toxicity based on both mild effects (localized inflammation) to severe (extensive necrosis, vacuolization and hemorrhaging)
- Intestinal histopathology (tilapia [1]; listed as citrate): severe inflammation in goblet cell (gc) and the lamina propria (lp)
- Fecal phosphorus content compared to control diet (tilapia [2]): significantly less
- Phosphorus discharge (via urine) in the water compared to soybean based control diet (tilapia [2]): significantly less
